Here are results for four molecules from PMC6127211, “The DnaA AAA+ Domain His136 Residue Directs DnaB Replicative Helicase to the Unwound Region of the Replication Origin, oriC” (Frontiers in Microbiology, 2018).

Like-named read-outs stand apart in the source and are kept apart here.

One experiment addresses T1, DnaA (wild-type DnaA) (Escherichia coli, UniProt P03004).
T1 construct: full-length wild-type DnaA, overproduced from pKA234 (arabinose-inducible pING derivative) in E. coli KA450 and purified; no tag mentioned
T1 sequence (P03004 1-467): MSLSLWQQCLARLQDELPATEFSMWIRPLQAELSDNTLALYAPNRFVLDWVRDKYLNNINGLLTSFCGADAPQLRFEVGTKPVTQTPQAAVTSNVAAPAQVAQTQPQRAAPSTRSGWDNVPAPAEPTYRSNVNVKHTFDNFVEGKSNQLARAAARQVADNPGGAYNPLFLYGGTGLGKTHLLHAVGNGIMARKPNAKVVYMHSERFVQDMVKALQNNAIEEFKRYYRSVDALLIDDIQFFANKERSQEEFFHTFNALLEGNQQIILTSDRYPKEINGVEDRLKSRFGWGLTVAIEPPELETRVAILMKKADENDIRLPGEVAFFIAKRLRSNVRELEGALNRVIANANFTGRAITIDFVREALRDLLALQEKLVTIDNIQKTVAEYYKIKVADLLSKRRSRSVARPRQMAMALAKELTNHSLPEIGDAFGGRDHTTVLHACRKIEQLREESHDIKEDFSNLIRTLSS
The experiment is described as follows: nucleotide binding to purified DnaA (method not described). The source says: (§1) nucleotide binding to purified DnaA (method not described) on DnaA (wild-type DnaA)

Another experiment concerns the target T2, DnaA (Escherichia coli, UniProt P03004, H136A).
T2 construct: full-length wild-type DnaA, overproduced from pKA234 (arabinose-inducible pING derivative) in E. coli KA450 and purified; no tag mentioned
T2 sequence (P03004 1-467 H136A): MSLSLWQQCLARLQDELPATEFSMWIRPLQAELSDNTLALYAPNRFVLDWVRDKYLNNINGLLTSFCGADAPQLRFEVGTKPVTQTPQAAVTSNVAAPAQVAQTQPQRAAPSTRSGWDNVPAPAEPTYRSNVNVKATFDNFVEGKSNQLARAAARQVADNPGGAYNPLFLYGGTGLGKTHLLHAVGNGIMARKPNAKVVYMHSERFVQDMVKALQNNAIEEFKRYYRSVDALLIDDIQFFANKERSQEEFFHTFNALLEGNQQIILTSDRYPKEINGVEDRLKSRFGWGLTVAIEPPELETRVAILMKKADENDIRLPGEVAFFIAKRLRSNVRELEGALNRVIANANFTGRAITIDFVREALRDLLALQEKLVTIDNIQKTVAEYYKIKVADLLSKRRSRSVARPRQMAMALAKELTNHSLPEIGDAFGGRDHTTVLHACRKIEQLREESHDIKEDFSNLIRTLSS
Described as above.
Source text: as §1

Experiment [1] has as its target T3, DnaB replicative helicase (E. coli, UniProt P0ACB0 1-471).
T3 construct: DnaB replicative helicase, Escherichia coli; No tag is named for the DnaB of the bio-oriC pull-down; The Form I* assay used His-DnaB and the His-DnaB pull-down used His-DnaB K236A; these forms are named in the readout of the functional rows; also called DnaB helicase
Briefly: pull-down; biotinylated oriC DNA (bio-oriC, 419 bp, 0.1 pmol) incubated on ice for 10 min with 5 pmol ATP-DnaA and different amounts of DnaB in buffer G (20 mM HEPES-KOH pH 7.6, 5 mM magnesium acetate, 1 mM EDTA, 10% glycerol, 0.1% Triton X-100, 4 mM DTT) with 1 mM ATP; recovered with streptavidin-coated beads; washed once with buffer G without KCl; silver staining with quantitative standards; no DnaC. To be noted: both partners purified.

As to `Nc1ncnc2c1ncn2[C@@H]1O[C@H](COP(=O)(O)OP(=O)(O)OP(=O)(O)O)[C@@H](O)[C@H]1O` [ATP], the Kd at DnaA (wild-type DnaA) (read-out: KD (nM) / ATP) was determined as 24 nM; on DnaA (read-out: KD (nM) / ATP) it was 21 nM.
In the case of `Nc1ncnc2c1ncn2[C@@H]1O[C@H](COP(=O)(O)OP(=O)(O)O)[C@@H](O)[C@H]1O` [ADP], the Kd was determined as 35 nM at DnaA (wild-type DnaA) (read-out: KD (nM) / ADP) and 50 nM at DnaA (read-out: KD (nM) / ADP).

B1: wild-type DnaA (natural protein, E. coli, UniProt P03004 1-467, looked up)
chain: MSLSLWQQCLARLQDELPATEFSMWIRPLQAELSDNTLALYAPNRFVLDWVRDKYLNNINGLLTSFCGADAPQLRFEVGTKPVTQTPQAAVTSNVAAPAQVAQTQPQRAAPSTRSGWDNVPAPAEPTYRSNVNVKHTFDNFVEGKSNQLARAAARQVADNPGGAYNPLFLYGGTGLGKTHLLHAVGNGIMARKPNAKVVYMHSERFVQDMVKALQNNAIEEFKRYYRSVDALLIDDIQFFANKERSQEEFFHTFNALLEGNQQIILTSDRYPKEINGVEDRLKSRFGWGLTVAIEPPELETRVAILMKKADENDIRLPGEVAFFIAKRLRSNVRELEGALNRVIANANFTGRAITIDFVREALRDLLALQEKLVTIDNIQKTVAEYYKIKVADLLSKRRSRSVARPRQMAMALAKELTNHSLPEIGDAFGGRDHTTVLHACRKIEQLREESHDIKEDFSNLIRTLSS
notes: DnaA, chromosomal replication initiator protein, Escherichia coli; wild-type dnaA-coding region of pKA234; also called WT; ATP-DnaA; source: E. coli KA450, overproduced from pKA234, purified
Turning to B1, the binding result in experiment [1] is “binds”.

B2: DnaA H136A (natural protein, E. coli, UniProt P03004 1-467, looked up)
chain: MSLSLWQQCLARLQDELPATEFSMWIRPLQAELSDNTLALYAPNRFVLDWVRDKYLNNINGLLTSFCGADAPQLRFEVGTKPVTQTPQAAVTSNVAAPAQVAQTQPQRAAPSTRSGWDNVPAPAEPTYRSNVNVKATFDNFVEGKSNQLARAAARQVADNPGGAYNPLFLYGGTGLGKTHLLHAVGNGIMARKPNAKVVYMHSERFVQDMVKALQNNAIEEFKRYYRSVDALLIDDIQFFANKERSQEEFFHTFNALLEGNQQIILTSDRYPKEINGVEDRLKSRFGWGLTVAIEPPELETRVAILMKKADENDIRLPGEVAFFIAKRLRSNVRELEGALNRVIANANFTGRAITIDFVREALRDLLALQEKLVTIDNIQKTVAEYYKIKVADLLSKRRSRSVARPRQMAMALAKELTNHSLPEIGDAFGGRDHTTVLHACRKIEQLREESHDIKEDFSNLIRTLSS
notes: DnaA, Escherichia coli, with the substitution H136A in domain III; pH136A is a derivative of pKA234; also called DnaA H136A mutant protein; source: E. coli KA450, overproduced from pH136A, purified
As to B2, the binding result in experiment [1] was “binds”.
